19 compounds from patent US20240409557A1, “5,6-FUSED AND 6,6-FUSED BICYCLIC ALCOHOLS AND ETHERS AND COMPOSITIONS FOR USE AS 15-PROSTAGLANDIN DEHYDROGENASE MODULATORS” (AMGEN INC., priority 2023, published 2024) can be followed below.

Test [1] concerns the target T1, human recombinant 15-PGDH (Homo sapiens, UniProt P15428).
T1 sequence (P15428 1-266): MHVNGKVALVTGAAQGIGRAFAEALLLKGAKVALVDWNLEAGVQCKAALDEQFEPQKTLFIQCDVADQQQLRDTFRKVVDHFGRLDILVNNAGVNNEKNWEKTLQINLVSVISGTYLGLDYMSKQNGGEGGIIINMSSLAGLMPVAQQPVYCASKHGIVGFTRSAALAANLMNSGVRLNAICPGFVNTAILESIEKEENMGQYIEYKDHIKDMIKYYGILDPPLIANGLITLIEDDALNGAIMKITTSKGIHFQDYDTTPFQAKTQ
Briefly: Recombinant 15-PGDH enzymatic inhibition assay (PGDH-Lumi, NADH signal). The class given is biochemical. The note with it: recombinant 15-PGDH; 15 min pre-incubation, 60 min reaction with PGE2 and NAD+, NADH signal. In a few lines:
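Buffer 50 mM Tris pH 7.5 with 0.01% Tween-20 and […]; compound, 22 two-fold dilutions, pre-incubated with enzyme 15 min before substrate.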

Another test deals with T2, 15-PGDH in A549 cells (Homo sapiens, UniProt P15428).
T2 construct: endogenous in cells; host or cells: A549
T2 sequence (P15428 1-266): T1 sequence (P15428 1-266)
As to the kind of experiment: A549 cellular 15-PGDH assay (PGE2 accumulation, HTRF). The note with it: interleukin-stimulated, inhibitor 24 hrs, PGE2 by competitive HTRF, read-out: A549 Cell Assay IC50. The class given is cell-based. An outline of the steps:
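Supernatant PGE2 was quantified by competitive HTRF, in which sample PGE2 blocks FRET between a europium cryptate-labelled antibody and labelled PGE2. It came from A549 epithelial cells induced with IL-13. IC50s were calculated from the inversely proportional signal.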

pIC50: −log10 of the molar value.

Take `CO[C@]1(C(F)(F)F)C[C@](O)(c2cc3ccc(-c4cnc5nn(C)cc5c4)nc3s2)C1` (single isomer, unassigned) [Compound C66T, trans-3-methoxy-1-(6-(2-methyl-2H-pyrazolo[3,4-b]pyridin-5-yl)thieno[2,3-b]pyridin-2-yl)-3-(trifluoromethyl)cyclobutanol]: the negative-log IC50 (pIC50) in test [1] was 9.33; at 15-PGDH in A549 cells it was 10.65.
The matching figures for `CO[C@@H]1CC[C@]1(O)c1cc2ccc(-c3cnc4nn(C)cc4c3)nc2s1` (single isomer, unassigned) [Compound C70RR]: 6.39 and 6.93.
The matching figures for `CO[C@H]1CC[C@]1(O)c1cc2ccc(-c3cnc4nn(C)cc4c3)nc2s1` (single isomer, unassigned) [Compound C70RS]: 5.41 and below 6.12.
As for `CO[C@@H]1CC[C@@]1(O)c1cc2ccc(-c3cnc4nn(C)cc4c3)nc2s1` (single isomer, unassigned) [Compound C70SR], the values for the pIC50 (in test [1]; at 15-PGDH in A549 cells) were 5.65 and 6.76, respectively.
The like results for `CO[C@H]1CC[C@@]1(O)c1cc2ccc(-c3cnc4nn(C)cc4c3)nc2s1` (single isomer, unassigned) [Compound C70SS] were, in that order, 5.64 and 6.50.
Regarding `Cn1cc2cc(-c3ccc4cc([C@]5(O)C[C@]6(CC6(F)F)C5)sc4n3)cnc2n1` (single isomer, unassigned) [Compound C88C, cis-1,1-difluoro-5-(6-(2-methyl-2H-pyrazolo[3,4-b]pyridin-5-yl)thieno[2,3-b]pyridin-2-yl)spiro[2.3]hexan-5-ol], the values for the pIC50 (in test [1]; at 15-PGDH in A549 cells) were 9.30 and 9.34, respectively.
Consider `Cn1cc2cc(-c3ccc4cc([C@]5(O)C[C@@]6(CC6(F)F)C5)sc4n3)cnc2n1` (single isomer, unassigned) [Compound C88T, trans-1,1-difluoro-5-(6-(2-methyl-2H-pyrazolo[3,4-b]pyridin-5-yl)thieno[2,3-b]pyridin-2-yl)spiro[2.3]hexan-5-ol], for which the pIC50 in test [1] is 9.46; on 15-PGDH in A549 cells, 9.23.
Take `Cn1cc2cc(-c3ccc4nc([C@]5(O)C[C@@](C)(C#N)C5)sc4n3)cnc2n1` (single isomer, unassigned) [Compound C91C, cis-3-hydroxy-1-methyl-3-(5-(2-methyl-2H-pyrazolo[3,4-b]pyridin-5-yl)[1,3]thiazolo[5,4-b]pyridin-2-yl)cyclobutanecarbonitrile]: the pIC50 in test [1] was 9.10; on 15-PGDH in A549 cells, 8.65.
The like results for `Cn1cc2cc(-c3ccc4nc([C@]5(O)C[C@](C)(C#N)C5)sc4n3)cnc2n1` (single isomer, unassigned) [Compound C91T, trans-3-hydroxy-1-methyl-3-(5-(2-methyl-2H-pyrazolo[3,4-b]pyridin-5-yl)[1,3]thiazolo[5,4-b]pyridin-2-yl)cyclobutanecarbonitrile] were, in that order, 8.67 and 8.23.
The like results for `Cn1cc2cc(-c3ncc4cc([C@]5(O)C[C@@](C)(C#N)C5)sc4n3)cnc2n1` (single isomer, unassigned) [Compound C96C, cis-3-hydroxy-1-methyl-3-(2-(2-methyl-2H-pyrazolo[3,4-b]pyridin-5-yl)thieno[2,3-d]pyrimidin-6-yl)cyclobutanecarbonitrile] were, in that order, 9.12 and 8.63.
The matching figures for `Cn1cc2cc(-c3ncc4cc([C@]5(O)C[C@](C)(C#N)C5)sc4n3)cnc2n1` (single isomer, unassigned) [Compound C96T, trans-3-hydroxy-1-methyl-3-(2-(2-methyl-2H-pyrazolo[3,4-b]pyridin-5-yl)thieno[2,3-d]pyrimidin-6-yl)cyclobutanecarbonitrile]: 9.35 and 8.86.
As to `Cn1nnc2cc(-c3ncc4cc([C@]5(O)C[C@@](C)(C#N)C5)sc4n3)cnc21` (single isomer, unassigned) [Compound C98C, cis-3-hydroxy-1-methyl-3-(2-(3-methyl-3H-[1,2,3]triazolo[4,5-b]pyridin-6-yl)thieno[2,3-d]pyrimidin-6-yl)cyclobutanecarbonitrile], the values for the pIC50 (in test [1]; at 15-PGDH in A549 cells) were 8.06 and 7.73, respectively.
The like results for `Cn1nnc2cc(-c3ncc4cc([C@]5(O)C[C@](C)(C#N)C5)sc4n3)cnc21` (single isomer, unassigned) [Compound C98T, trans-3-hydroxy-1-methyl-3-(2-(3-methyl-3H-[1,2,3]triazolo[4,5-b]pyridin-6-yl)thieno[2,3-d]pyrimidin-6-yl)cyclobutanecarbonitrile] were, in that order, 8.76 and 8.58.
The matching figures for `CO[C@]1(C)C[C@@](O)(c2cc3ccc(-c4cnc5c(c4)nnn5C)nc3s2)C1` (single isomer, unassigned) [Compound C102C, cis-3-methoxy-3-methyl-1-(6-(3-methyl-3H-[1,2,3]triazolo[4,5-b]pyridin-6-yl)thieno[2,3-b]pyridin-2-yl)cyclobutanol]: 9.01 and 8.60.
The matching figures for `CO[C@]1(C)C[C@](O)(c2cc3ccc(-c4cnc5c(c4)nnn5C)nc3s2)C1` (single isomer, unassigned) [Compound C102T, trans-3-methoxy-3-methyl-1-(6-(3-methyl-3H-[1,2,3]triazolo[4,5-b]pyridin-6-yl)thieno[2,3-b]pyridin-2-yl)cyclobutanol]: 8.78 and 8.24.
On to `Cn1nnc2cc(-c3ccc4cc([C@]5(O)C[C@@](C)(C#N)C5)sc4n3)cnc21` (single isomer, unassigned) [Compound C104C, cis-3-hydroxy-1-methyl-3-(6-(3-methyl-3H-[1,2,3]triazolo[4,5-b]pyridin-6-yl)thieno[2,3-b]pyridin-2-yl)cyclobutanecarbonitrile], for which the pIC50 in test [1] is 8.41; at 15-PGDH in A549 cells it was 7.95.
Regarding `Cn1nnc2cc(-c3ccc4cc([C@]5(O)C[C@](C)(C#N)C5)sc4n3)cnc21` (single isomer, unassigned) [Compound C104T, trans-3-hydroxy-1-methyl-3-(6-(3-methyl-3H-[1,2,3]triazolo[4,5-b]pyridin-6-yl)thieno[2,3-b]pyridin-2-yl)cyclobutanecarbonitrile], the pIC50 is 9.29 in test [1] and 8.84 at 15-PGDH in A549 cells.
The matching figures for `Cn1cc2cc(-c3ccc4sc([C@]5(O)C[C@@](C)(C#N)C5)cc4n3)cnc2n1` (single isomer, unassigned) [Compound C106C, cis-3-hydroxy-1-methyl-3-(5-(2-methyl-2H-pyrazolo[3,4-b]pyridin-5-yl)thieno[3,2-b]pyridin-2-yl)cyclobutanecarbonitrile]: 7.78 and 7.53.
With `Cn1cc2cc(-c3ccc4sc([C@]5(O)C[C@](C)(C#N)C5)cc4n3)cnc2n1` (single isomer, unassigned) [Compound C106T, trans-3-hydroxy-1-methyl-3-(5-(2-methyl-2H-pyrazolo[3,4-b]pyridin-5-yl)thieno[3,2-b]pyridin-2-yl)cyclobutanecarbonitrile], the pIC50 is 7.62 in test [1] and 7.34 on 15-PGDH in A549 cells.
